{"source": "patent US20200045969A1", "about": "“Fungicidal Composition and Fungicide for Controlling Asparagus Stem Blight” (Institute of Plant Protection, Jiangxi Academy of …, priority 2018, published 2020)", "tested_on": "Phomopsis asparagi (Sacc.)", "assay": "laboratory toxicity, mycelium growth rate method", "type": "cell-based", "details": "for ATI (actually-determined toxicity index): (EC50 of standard agent/EC50 of agent to be tested)×100, difenoconazole = 100; for EC50: Phomopsis asparagi, pathogenic fungi of asparagus stem blight collected from the field", "procedure": "According to Sun Yunpei method, the synergistic effect of the mixed drug was evaluated based on a cotoxicity coefficient (CTC). […] The subjects to be tested were pathogenic fungi of asparagus stem blight collected from the field. The determination method was conducted with reference to the mycelium growth rate method in “Technical regulation on agricultural construction project acceptance NY/T 1156.6-2006 of the People's Republic of China”.", "data": [{"smiles": "CC1COC(Cn2cncn2)(c2ccc(Oc3ccc(Cl)cc3)cc2Cl)O1", "note": "(stereo not shown) [difenoconazole]", "values": [{"measurement": "ATI (actually-determined toxicity index)", "result": 100.00}, {"measurement": "EC50", "result": 0.088, "unit": "µg/mL"}]}, {"smiles": "N=C(N)c1ccc(OCCCOc2ccc(C(=N)N)cc2)cc1", "note": "[propamidine]", "values": [{"measurement": "ATI (actually-determined toxicity index)", "result": 166.04}, {"measurement": "EC50", "result": 0.053, "unit": "µg/mL"}]}]}
